US20250302775A1, “METHODS FOR THE TREATMENT OF DEPRESSION” (Autobahn Therapeutics, Inc., priority 2022, published 2025)

Target: T1, recombinant human FAAH (rhFAAH) (Homo sapiens, UniProt O00519)
T1 construct: purchased Cayman Chemical (Ann Arbor, MI, USA)
T1 sequence (O00519 1-579): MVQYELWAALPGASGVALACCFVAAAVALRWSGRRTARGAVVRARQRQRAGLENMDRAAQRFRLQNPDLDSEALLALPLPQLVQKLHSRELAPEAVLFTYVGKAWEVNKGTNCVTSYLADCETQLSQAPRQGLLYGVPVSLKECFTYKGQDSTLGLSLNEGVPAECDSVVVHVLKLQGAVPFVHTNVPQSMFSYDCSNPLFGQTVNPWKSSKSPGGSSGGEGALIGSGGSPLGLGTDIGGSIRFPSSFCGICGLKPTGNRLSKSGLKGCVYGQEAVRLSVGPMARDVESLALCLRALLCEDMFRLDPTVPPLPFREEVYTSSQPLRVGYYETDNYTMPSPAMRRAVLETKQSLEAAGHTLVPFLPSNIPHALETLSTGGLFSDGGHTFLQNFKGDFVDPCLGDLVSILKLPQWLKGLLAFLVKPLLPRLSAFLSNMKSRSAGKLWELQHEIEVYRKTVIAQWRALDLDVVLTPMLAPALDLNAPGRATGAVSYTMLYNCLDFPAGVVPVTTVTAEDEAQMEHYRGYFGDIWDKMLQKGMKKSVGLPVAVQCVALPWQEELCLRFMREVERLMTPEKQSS
Test: FAAH substrate evaluation: formation of acid metabolite
Assay type: biochemical
Conditions: 0.5 ng/μL rhFAAH, 1 μM test compound, room temperature, pH 8.0, 0-60 minutes
Description: Purified recombinant human FAAH (rhFAAH) was purchased from Cayman Chemical (Ann Arbor, MI, USA). The total volume for each incubation was 400 μL containing a final 0.5 ng/μL rhFAAH, 1 μM test compound, 1.25% ethanol or 1 μM PF-3845 (FAAH inhibitor), and 0.1% bovine serum albumin in Tris-EDTA buffer at pH 8.0). The positive control was LL-341001. The incubation was conducted at the room temperature. At 0, 5, 15, 30 and 60 minutes, an aliquot of 30 μL reaction mixtures was removed and mixed with 300 μL acetonitrile containing 5 ng/mL terfenadine and 10 ng/mL tolbutamide as internal standards to quench the reaction. The resulting mixture was centrifuged at 4000 rpm, 4° C. for 15 minutes, and 100 μL supernatant was ready for LC-MS/MS analysis to measure the formation of acid metabolite.
Acquity Ultra Performance LC system from Waters was used for sample analysis. The chromatography was performed on a reverse phase Kinetex 2.6 μm C18 column, 2.1×30 mm, 100 Å. The mobile phase A comprised of 0.1% formic acid in water and mobile phase B comprised of 0.1% formic acid in acetonitrile with a 2-min run time at the flow rate of 0.8 mL/min for the acid metabolite from positive control or a 1.5 min run time at the flow rate of 0.9 mL/min for the acid metabolite of test compounds. The mass spectrometer (API-5500 and API Q Trap 4000 Applied Biosystems/MDS SCIEX Instruments, Framingham, MA, USA) was operated under ESI positive or negative ion MRM mode.
The formation of acid metabolite was monitored and quantified using one calibration point of 1 μM. The observed rate constant (ke) for the acid metabolite formation was calculated by plotting the metabolite concentration versus time of incubation with the slope being ke and is shown in Table 1.

Row | SMILES | ke (observed rate constant for the acid metabolite formation)
1 | CCCNC(=O)COc1cc(Cl)c(Cc2ccc(O)c(C(C)C)c2)c(Cl)c1 [Compound 3] | A (A = ke is more than or equal to 0.1)
2 | CC(C)c1cc(Cc2c(Cl)cc(OCC(=O)NCCO)cc2Cl)ccc1O [Compound 6] | A (A = ke is more than or equal to 0.1)
3 | CC(C)c1cc(Cc2c(Cl)cc(OCC(=O)NC[C@@H](C)O)cc2Cl)ccc1O [Compound 7] | B (B = ke is less than 0.1 and more than 0)
4 | CC(C)c1cc(Cc2c(Cl)cc(OCC(=O)NC[C@H](C)O)cc2Cl)ccc1O [Compound 8] | B (B = ke is less than 0.1 and more than 0)
5 | CC(C)c1cc(Cc2c(Cl)cc(OCC(=O)NC(CO)CO)cc2Cl)ccc1O [Compound 11] | B (B = ke is less than 0.1 and more than 0)
6 | CC(C)c1cc(Cc2c(Cl)cc(OCC(=O)NCCN)cc2Cl)ccc1O [Compound 12] | B (B = ke is less than 0.1 and more than 0)
7 | CC(C)c1cc(Cc2c(Cl)cc(OCC(=O)NCCS(=O)O)cc2Cl)ccc1O [Compound 13] | B (B = ke is less than 0.1 and more than 0)
8 | CC(C)c1cc(Cc2c(Cl)cc(OCC(=O)NC3CC3)cc2Cl)ccc1O [Compound 17] | A (A = ke is more than or equal to 0.1)
9 | CC(C)c1cc(Cc2c(Cl)cc(OCC(=O)N(C)C)cc2Cl)ccc1O [Compound 19] | B (B = ke is less than 0.1 and more than 0)
10 | CC(C)c1cc(Cc2c(Cl)cc(OCC(=O)NCCc3ccccc3)cc2Cl)ccc1O [Compound 23] | B (B = ke is less than 0.1 and more than 0)
11 | CC(C)c1cc(Cc2c(Cl)cc(OCC(=O)NCCc3ccc(O)c(O)c3)cc2Cl)ccc1O [Compound 24] | B (B = ke is less than 0.1 and more than 0)
12 | CONC(=O)COc1cc(Cl)c(Cc2ccc(O)c(C(C)C)c2)c(Cl)c1 [Compound 28] | A (A = ke is more than or equal to 0.1)
13 | CCN(C)C(=O)COc1cc(Cl)c(Cc2ccc(O)c(C(C)C)c2F)c(Cl)c1 [Compound 34] | C (C = ke is 0)
14 | CNC(=O)COc1cc(Cl)c(Cc2ccc(O)c(C(C)C)c2)c(Cl)c1F [Compound 37] | B (B = ke is less than 0.1 and more than 0)
15 | CC(C)c1cc(Cc2c(Cl)cc(OCC(=O)N(C)C)c(F)c2Cl)ccc1O [Compound 38] | B (B = ke is less than 0.1 and more than 0)
16 | CNC(=O)COc1cc(Cl)c(Cc2ccc(O)c(C(C)C)c2F)c(Cl)c1F [Compound 39] | B (B = ke is less than 0.1 and more than 0)
17 | CC(C)c1c(O)ccc(Cc2c(Cl)cc(OCC(=O)N(C)C)c(F)c2Cl)c1F [Compound 40] | B (B = ke is less than 0.1 and more than 0)
18 | CNC(=O)COc1cc(F)c(Cc2ccc(O)c(C(C)C)c2)c(Cl)c1F [Compound 42] | A (A = ke is more than or equal to 0.1)
19 | CON(C)C(=O)COc1cc(Cl)c(Cc2ccc(O)c(C(C)C)c2F)c(Cl)c1 [Compound 44] | A (A = ke is more than or equal to 0.1)
20 | CC(C)c1c(O)ccc(Cc2c(Cl)cc(OCC(=O)NN(C)C)cc2Cl)c1F [Compound 45] | A (A = ke is more than or equal to 0.1)
21 | CC(C)c1cc(Cc2c(Cl)cc(OCC(=O)NC3CCCCC3)cc2Cl)ccc1O [Compound 105] | C (C = ke is 0)

Results, then the molecule that gave them:

Row | ke (observed rate constant for the acid metabolite formation) | SMILES
22 | A (A = ke is more than or equal to 0.1) | CCNC(=O)COc1cc(Cl)c(Cc2ccc(O)c(C(C)C)c2)c(Cl)c1 [Compound 2]
23 | A (A = ke is more than or equal to 0.1) | C=CCNC(=O)COc1cc(Cl)c(Cc2ccc(O)c(C(C)C)c2)c(Cl)c1 [Compound 4]
24 | A (A = ke is more than or equal to 0.1) | C#CCNC(=O)COc1cc(Cl)c(Cc2ccc(O)c(C(C)C)c2)c(Cl)c1 [Compound 5]
25 | A (A = ke is more than or equal to 0.1) | CC(C)c1cc(Cc2c(Cl)cc(OCC(=O)N[C@H](C)CO)cc2Cl)ccc1O [Compound 9]
26 | A (A = ke is more than or equal to 0.1) | CC(C)c1cc(Cc2c(Cl)cc(OCC(=O)N[C@@H](C)CO)cc2Cl)ccc1O [Compound 10]
27 | A (A = ke is more than or equal to 0.1) | CC(C)c1cc(Cc2c(Cl)cc(OCC(=O)NCCF)cc2Cl)ccc1O [Compound 14]
28 | A (A = ke is more than or equal to 0.1) | CC(C)c1cc(Cc2c(Cl)cc(OCC(=O)NCC(F)F)cc2Cl)ccc1O [Compound 15]
29 | A (A = ke is more than or equal to 0.1) | CC(C)c1cc(Cc2c(Cl)cc(OCC(=O)NCC(F)(F)F)cc2Cl)ccc1O [Compound 16]
30 | A (A = ke is more than or equal to 0.1) | CC(C)c1cc(Cc2c(Cl)cc(OCC(=O)NC3COC3)cc2Cl)ccc1O [Compound 18]
31 | A (A = ke is more than or equal to 0.1) | CC(C)c1cc(Cc2c(Cl)cc(OCC(=O)Nc3ccccc3O)cc2Cl)ccc1O [Compound 20]
32 | A (A = ke is more than or equal to 0.1) | CC(C)c1cc(Cc2c(Cl)cc(OCC(=O)Nc3cccc(O)c3)cc2Cl)ccc1O [Compound 21]
33 | A (A = ke is more than or equal to 0.1) | CC(C)c1cc(Cc2c(Cl)cc(OCC(=O)NCc3ccccc3)cc2Cl)ccc1O [Compound 22]
34 | A (A = ke is more than or equal to 0.1) | CC(C)c1cc(Cc2c(Cl)cc(OCC(=O)Nc3cccc(F)c3)cc2Cl)ccc1O [Compound 25]
35 | A (A = ke is more than or equal to 0.1) | CC(C)c1cc(Cc2c(Cl)cc(OCC(=O)NO)cc2Cl)ccc1O [Compound 26]
36 | A (A = ke is more than or equal to 0.1) | CC(C)c1cc(Cc2c(Cl)cc(OCC(=O)NN)cc2Cl)ccc1O [Compound 27]
37 | A (A = ke is more than or equal to 0.1) | CC(C)c1cc(Cc2c(Cl)cc(OCC(=O)NCC#N)cc2Cl)ccc1O [Compound 29]
38 | A (A = ke is more than or equal to 0.1) | CC(C)c1cc(Cc2c(Cl)cc(OCC(=O)NCCS(C)(=O)=O)cc2Cl)ccc1O [Compound 30]
39 | A (A = ke is more than or equal to 0.1) | CC(C)c1c(O)ccc(Cc2c(Cl)cc(OCC(=O)N(C)C)cc2Cl)c1F [Compound 32]
40 | A (A = ke is more than or equal to 0.1) | CCNC(=O)COc1cc(Cl)c(Cc2ccc(O)c(C(C)C)c2F)c(Cl)c1 [Compound 33]
41 | A (A = ke is more than or equal to 0.1) | CC(C)c1c(O)ccc(Cc2c(Cl)cc(OCC(N)=O)cc2Cl)c1F [Compound 35]
42 | A (A = ke is more than or equal to 0.1) | CC(C)c1c(O)ccc(Cc2c(Cl)cc(OCC(=O)NCCF)cc2Cl)c1F [Compound 36]
43 | A (A = ke is more than or equal to 0.1) | COc1ccc(NC(=O)COc2cc(Cl)c(Cc3ccc(O)c(C(C)C)c3)c(Cl)c2)cn1 [Compound 101]
44 | A (A = ke is more than or equal to 0.1) | CC(C)c1cc(Cc2c(Cl)cc(OCC(=O)Nc3cnccn3)cc2Cl)ccc1O [Compound 102]
45 | A (A = ke is more than or equal to 0.1) | Cc1noc(NC(=O)COc2cc(Cl)c(Cc3ccc(O)c(C(C)C)c3)c(Cl)c2)c1C [Compound 103]
46 | A (A = ke is more than or equal to 0.1) | CC(C)c1cc(Cc2c(Cl)cc(OCC(=O)Nc3cccnn3)cc2Cl)ccc1O [Compound 104]
